# Measurements published in patent US9051310B2, “Nicotinamide derivative or salt thereof” (FUJIFILM Corporation, priority 2011, dated 2015).
# pIC50: −log10 of the molar value.
# Columns and labels:
# [1] = system: THP-1 cells (TNFα secretion on human IgG-coated plate); assay: TNFα generation assay; assay type: cell-based; details: IFN-γ differentiated THP-1 cells, 7 hours, AlphaLISA, read-out: IC50 of TNFα generation inhibitory activity
# Method: THP-1 cells (2×10^5 cells/ml), which were human monocytoid cells, were cultured in the presence of 10 ng/ml IFN-γ (Roche) for 2 days, and they were induced to differentiate into macrophage-like cells. The differentiation-induced THP-1 cells were recovered, and the cells (1×10^6 cell/ml) were then allowed to react with a predetermined concentration of test compound at room temperature for 30 minutes. On the other hand, 100 μl of human IgG (10 μg/ml, SIGMA-ALDRICH) diluted with PBS was added to a 96-well plate, and it was then incubated at room temperature overnight. Thereafter, the resultant was washed with PBS twice to produce a human IgG-coated plate. A cell fluid that contained a compound was plated on the obtained human IgG-coated plate (5×10^4 cells/well), and it was then cultured for 7 hours. Thereafter, the cultured solution was recovered, and the amount of TNFα secreted into the culture solution was then measured by the AlphaLISA method (PerkinElmer).
# [2] = molecular target: T1, glutathione S-transferase (GST)-linked full-length human Syk protein (Homo sapiens, UniProt P43405); assay: Syk enzyme assay; assay type: biochemical; details: 0.83 nM Syk, time-resolved fluorescence; read-out: IC50 of Syk-inhibitory activity
# T1 construct: glutathione S-transferase (GST)-linked full-length human Syk protein; purchased Carna Biosciences; host or cells: Baculovirus expression system
# Outline: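 Phosphotyrosine on a biotin-peptide substrate (0.5 μM) was read by time-resolved fluorescence at 615 and 665 nm with Eu-anti-pTyr antibody and APC-streptavidin after 1 h EDTA stop.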
SMILES,pIC50 [1],pIC50 [2]
"COc1cc(Nc2nc(N[C@H](C3CCC3)[C@H](C)N)c(F)cc2C(N)=O)ccn1 [Example 2-5, 6-(((1R,2S)-2-amino-1-cyclobutylpropyl)amino)-5-fluoro-2-((2-methoxypyridin-4-yl)amino)nicotinamide]",6.89 to 7.19,> 8.00
"COc1cc(Nc2nc(N[C@H](C3CCC3)[C@H](C)N)c(F)cc2C(N)=O)cc(OC)n1 [Example 2-6, 6-(((1R,2S)-2-amino-1-cyclobutylpropyl)amino)-2-((2,6-dimethoxypyridin-4-yl)amino)-5-fluoronicotinamide]",6.70 to 6.89,> 8.00
"COCCOc1cc(Nc2nc(N[C@H](C3CCC3)[C@H](C)N)c(F)cc2C(N)=O)ccn1 [Example 2-7, 6-(((1R,2S)-2-amino-1-cyclobutylpropyl)amino)-5-fluoro-2-((2-(2-methoxyethoxy)pyridin-4-yl)amino)nicotinamide]",6.89 to 7.19,> 8.00
"C[C@H](N)[C@H](Nc1nc(Nc2ccc3ncccc3c2)c(C(N)=O)cc1F)C1CCC1 [Example 2-8, 6-(((1R,2S)-2-amino-1-cyclobutylpropyl)amino)-5-fluoro-2-(quinolin-6-ylamino)nicotinamide]",> 7.19,> 8.00
CCn1ncc2cc(Nc3nc(N[C@H](C4CCC4)[C@H](C)N)c(F)cc3C(N)=O)ccc21 [Example 2-9],6.89 to 7.19,> 8.00
"C[C@H](N)[C@H](Nc1nc(Nc2ccc3cnn(C)c3c2)c(C(N)=O)cc1F)C1CCC1 [Example 2-10, 6-(((1R,2S)-2-amino-1-cyclobutylpropyl)amino)-5-fluoro-2-((1-methyl-1H-indazol-6-yl)amino)nicotinamide]",> 7.19,> 8.00
"CCn1ncc2ccc(Nc3nc(N[C@H](CC(C)C)[C@H](C)N)c(F)cc3C(N)=O)cc21 [Example 2-11, 6-(((2S,3R)-2-amino-5-methylhexan-3-yl)amino)-2-((1-ethyl-1H-indazol-6-yl)amino)-5-fluoronicotinamide]",6.70 to 6.89,> 8.00
"CCCC[C@@H](Nc1nc(Nc2cnc(C)c(C)c2)c(C(N)=O)cc1F)[C@H](C)N [Example 2-19, 6-(((2S,3R)-2-aminoheptan-3-yl)amino)-2-((5,6-dimethylpyridin-3-yl)amino)-5-fluoronicotinamide]",6.70 to 6.89,> 8.00
"NC(=O)c1cc(F)c(N[C@@H]2CCCC[C@@H]2N)nc1Nc1cccc2c1cnn2CC(F)F [Example 2-20, 6-(((1R,2S)-2-aminocyclohexyl)amino)-2-((1-(2,2-difluoroethyl)-1H-indazol-4-yl)amino)-5-fluoronicotinamide]",6.89 to 7.19,> 8.00
"COCCn1nc(OC(F)F)c2cc(Nc3nc(N[C@@H](CN)CC(C)C)c(F)cc3C(N)=O)ccc21 [Example 2-542, (R)-6-((1-amino-4-methylpentan-2-yl)amino)-2-((3-(difluoromethoxy)-1-(2-methoxyethyl)-1H-indazol-5-yl)amino)-5-fluoronicotinamide]",,> 8.00
"COCCn1nc(OC(F)F)c2cc(Nc3nc(N[C@H](C4CCC4)[C@H](C)N)c(F)cc3C(N)=O)ccc21 [Example 2-543, 6-(((1R,2S)-2-amino-1-cyclobutylpropyl)amino)-2-((3-(difluoromethoxy)-1-(2-methoxyethyl)-1H-indazol-5-yl)amino)-5-fluoronicotinamide]",,> 8.00
"CC[C@H](N)[C@@H](C)Nc1nc(Nc2ccc3c(c2)c(OC(F)F)nn3CCOC)c(C(N)=O)cc1F [Example 2-544, 6-(((2R,3S)-3-aminopentan-2-yl)amino)-2-((3-(difluoromethoxy)-1-(2-methoxyethyl)-1H-indazol-5-yl)amino)-5-fluoronicotinamide]",,7.30 to 8.00
"CC[C@H](N)[C@H](Nc1nc(Nc2ccc3c(c2)c(C)nn3C)c(C(N)=O)cc1F)C1CC1 [Example 2-545, 6-(((1R,2S)-2-amino-1-cyclopropylbutyl)amino)-2-((1,3-dimethyl-1H-indazol-5-yl)amino)-5-fluoronicotinamide]",,> 8.00
"CC[C@H](N)[C@H](Nc1nc(Nc2cccc3c2cnn3CC(F)F)c(C(N)=O)cc1F)C1CC1 [Example 2-547, 6-(((1R,2S)-2-amino-1-cyclopropylbutyl)amino)-2-((1-(2,2-difluoroethyl)-1H-indazol-4-yl)amino)-5-fluoronicotinamide]",,> 8.00
"Cc1ncc(Nc2nc(N[C@H](c3cc(F)cc(F)c3)[C@H](C)N)c(F)cc2C(N)=O)cc1-n1nccn1 [Example 2-548, 6-(((1R,2S)-2-amino-1-(3,5-difluorophenyl)propyl)amino)-5-fluoro-2-((6-methyl-5-(2H-1,2,3-triazol-2-yl)pyridin-3-yl)amino)nicotinamide]",,7.30 to 8.00
"C[C@H](N)[C@H](Nc1nc(Nc2ccc3c(c2)c(N(C)C)nn3C)c(C(N)=O)cc1F)c1cc(F)cc(F)c1 [Example 2-549, 6-(((1R,2S)-2-amino-1-(3,5-difluorophenyl)propyl)amino)-2-((3-(dimethylamino)-1-methyl-1H-indazol-5-yl)amino)-5-fluoronicotinamide]",,7.30 to 8.00
"COCCn1ncc2cc(Nc3nc(N[C@H](c4cc(F)cc(F)c4)[C@H](C)N)c(F)cc3C(N)=O)ccc21 [Example 2-550, 6-(((1R,2S)-2-amino-1-(3,5-difluorophenyl)propyl)amino)-5-fluoro-2-((1-(2-methoxyethyl)-1H-indazol-5-yl)amino)nicotinamide]",,> 8.00
"CCn1ncc2c(Nc3nc(N[C@H](c4cc(F)cc(F)c4)[C@H](C)N)c(F)cc3C(N)=O)cccc21 [Example 2-551, 6-(((1R,2S)-2-amino-1-[3,5-difluorophenyl)propyl)amino)-2-((1-ethyl-1H-indazol-4-yl)amino)-5-fluoronicotinamide]",,7.30 to 8.00
"Cc1ncc(Nc2nc(N[C@H](c3ccc(F)c(F)c3)[C@H](C)N)c(F)cc2C(N)=O)cc1-n1nccn1 [Example 2-552, 6-(((1R,2S)-2-amino-1-(3,4-difluorophenyl)propyl)amino)-5-fluoro-2-((6-methyl-5-(2H-1,2,3-triazol-2-yl)pyridin-3-yl)amino)nicotinamide]",,> 8.00
"C[C@H](N)[C@H](Nc1nc(Nc2ccc3c(c2)c(N(C)C)nn3C)c(C(N)=O)cc1F)c1ccc(F)c(F)c1 [Example 2-553, 6-(((1R,2S)-2-amino-1-(3,4-difluorophenyl)propyl)amino)-2-((3-(dimethylamino)-1-methyl-1H-indazol-5-yl)amino)-5-fluoronicotinamide]",,> 8.00
"COCCn1ncc2cc(Nc3nc(N[C@H](c4ccc(F)c(F)c4)[C@H](C)N)c(F)cc3C(N)=O)ccc21 [Example 2-554, 6-(((1R,2S)-2-amino-1-(3,4-difluorophenyl)propyl)amino)-5-fluoro-2-((1-(2-methoxyethyl)-1H-indazol-5-yl)amino)nicotinamide]",,> 8.00
"CCn1ncc2c(Nc3nc(N[C@H](c4ccc(F)c(F)c4)[C@H](C)N)c(F)cc3C(N)=O)cccc21 [Example 2-555, 6-(((1R,2S)-2-amino-1-(3,4-difluorophenyl)propyl)amino)-2-((1-ethyl-1H-indazol-4-yl)amino)-5-fluoronicotinamide]",,> 8.00
"C[C@H](N)[C@H](Nc1nc(Nc2cnc(N3CCOCC3)nc2)c(C(N)=O)cc1F)C1CC1 [Example 2-563, 6-(((1R,2S)-2-amino-1-cyclopropylpropyl)amino)-5-fluoro-2-((2-morpholinopyrimidin-5-yl)amino)nicotinamide]",,7.00 to 7.30
